{"source": "patent US20170239253A1", "about": "“COMPOSITIONS AND METHODS FOR THE REDUCTION OR PREVENTION OF NON-ALCOHOLIC STEATOHEPATITIS (NASH)” (NuSirt Sciences, Inc., priority 2015, published 2017)", "key": {"[1]": {"conditions": "25 mg icariin/kg diet; corresponding to 4 mg/kg body weight/day; cited from earlier work"}, "[2]": {"system": "C57Bl/6 mice on high fat diet (HFD)", "assay": "Liver weight after six weeks treatment in chronic high fat diet model of hepatic steatosis", "type": "in vivo", "from_the_text": "(§1) Chronic high fat diet was used in C57Bl/6 mice as an experimental model of hepatic steatosis. Male C57/BL6 mice were either maintained on standard low-fat diet (control; LFD; 10% energy from fat) or placed on a high fat (HFD; 60% energy from fat, Research Diets #D12492, Research Diets, Inc., New Brunswick, N.J.) at six weeks of age to induce obesity and fatty infiltration of the liver. […] Animals fed with LFD have normal cellular structure in liver cells. […] Animals were then randomized to treatments for an additional six weeks, with 10 animals per group, as specified in the following examples.\n(§2) The 1.5 g/kg diet of metformin corresponds to a therapeutically effective dose of metformin in humans.\n(§3) Following induction of hepatic steatosis as described in Example 1, animals were treated for six weeks according to the following treatment groups as depicted in Table 22:\n(§4) In this study, the effects of metformin alone (therapeutic dose) vs. combination therapy with sub-therapeutic amounts of metformin and HMB on liver weight and hepatic lipid accumulation were assessed. Following induction of hepatic steatosis as described in Example 1, animals were treated for six weeks according to the following treatment groups as depicted in Table 23:"}, "[3]": {"system": "C57Bl/6 mice on high fat diet (HFD)", "assay": "Prophylactic treatment concurrent with high fat diet: liver mass and hepatic lipid accumulation", "type": "in vivo", "conditions": "six weeks, metformin alone 1.5 g/kg", "experimental": "In this study, the prophylactic effects of metformin alone, and various combinations of metformin, leucine, and resveratrol on liver mass and hepatic steatosis are assessed. C57Bl/6 mice are assigned to the following experimental groups as depicted in Table 25: Drug treatments and high fat diet feeding (as described in Example 1) are initiated on the same day and are carried out for six weeks. The effects of the treatments and diet on liver mass and hepatic lipid accumulation are assessed as described in the preceding examples. […] In this study, the prophylactic effects of metformin alone, and various combinations of metformin, HMB, and resveratrol on liver mass and hepatic steatosis are assessed. C57Bl/6 mice are assigned to the following experimental groups as depicted in Table 26: Drug treatments and high fat diet feeding (as described in Example 1) are initiated on the same day and are carried out for six weeks. The effects of the treatments and diet on liver mass and hepatic lipid accumulation are assessed as described in the preceding examples. […] In this study, the prophylactic effects of sub-therapeutic leucine alone, and co-administration of leucine and the PDE5-specific inhibitor icariin on liver mass and hepatic steatosis are assessed. […] The effects of the treatments and diet on liver mass and hepatic lipid accumulation are assessed as described in the preceding examples."}, "[4]": {"system": "C57Bl/6 mice on high fat diet (HFD)", "conditions": "Example 3; metformin alone 1.5 g/kg diet; leucine 24 g/kg + metformin 0.5 g/kg", "from_the_text": "Chronic high fat diet was used in C57Bl/6 mice as an experimental model of hepatic steatosis. Male C57/BL6 mice were either maintained on standard low-fat diet (control; LFD; 10% energy from fat) or placed on a high fat (HFD; 60% energy from fat, Research Diets #D12492, Research Diets, Inc., New Brunswick, N.J.) at six weeks of age to induce obesity and fatty infiltration of the liver. […] Animals were then randomized to treatments for an additional six weeks, with 10 animals per group, as specified in the following examples.\nIn this study, the effects of metformin alone (therapeutic dose) vs. combination therapy with sub-therapeutic amounts of metformin and leucine on liver weight and hepatic lipid accumulation were assessed."}, "[5]": {"system": "C57Bl/6 mice on high fat diet (HFD)", "assay": "Histological analysis of hepatic lipid accumulation (hepatic steatosis), high fat diet model", "from_the_text": "as §1, §2, §3, §4"}}}
{"compound": "COc1ccc(-c2oc3c(CC=C(C)C)c(O[C@@H]4O[C@H](CO)[C@@H](O)[C@H](O)[C@H]4O)cc(O)c3c(=O)c2O[C@@H]2O[C@@H](C)[C@H](O)[C@@H](O)[C@H]2O)cc1", "note": "[icariin]", "values": [{"measurement": "effect on liver mass or hepatic lipid accumulation", "setting": "[1]", "value": "no effect"}]}
{"compound": "metformin", "values": [{"measurement": "effect on liver weight", "setting": "[2]; Example 2, metformin alone 1.5 g/kg diet, leucine 24 g/kg diet, resveratrol 12.5 mg/kg diet", "value": "partially reverse the effect of high fat diet on liver weight"}, {"measurement": "effect on liver weight", "setting": "[2]; Example 3, metformin alone 1.5 g/kg diet, leucine 24 g/kg + metformin 0.25 and 0.5 g/kg, p<0.02 vs. HFD", "value": "reversed the effect of high fat diet on liver weight back to control levels"}, {"measurement": "effect on liver weight", "setting": "[2]; Example 4, metformin alone 1.5 g/kg diet, CaHMB 2 g/kg diet + metformin 0.25 and 0.5 g/kg, p<0.03", "value": "reversed the effect of high fat diet on liver weight back to control levels"}, {"measurement": "HFD-induced increase in liver mass and hepatic lipid accumulation (prophylactic)", "setting": "[3]; Example 6, treatment and HFD started same day, leucine 24 g/kg + metformin 0.15-0.50 g/kg ± resveratrol 12.5 mg/kg diet", "value": "attenuates the HFD-induced increase in liver mass and hepatic lipid accumulation"}, {"measurement": "HFD-induced increase in liver mass and hepatic lipid accumulation (prophylactic)", "setting": "[3]; Example 7, CaHMB 2 g/kg + metformin 0.15-0.50 g/kg ± resveratrol 12.5 mg/kg diet", "value": "attenuates the HFD-induced increase in liver mass and hepatic lipid accumulation"}, {"measurement": "effect on liver triglycerides", "setting": "[4]", "value": "partially reversed the effect of high fat diet on liver triglycerides"}, {"measurement": "hepatic steatosis (histology)", "setting": "[5]; Example 2, HFD mice, six weeks, metformin alone at therapeutic dosage, combinations at sub-therapeutic dosages", "value": "partial reversal of the effects of HFD on hepatic steatosis"}, {"measurement": "hepatic steatosis (histology)", "setting": "[5]; Example 3, metformin alone therapeutic, leucine + metformin 0.5 g/kg", "value": "partially reversed hepatic steatosis"}]}
